Data reported in US20060148774A1, “Hypoglycemic agent” (Riken, priority 2001, published 2006).

Key:
c57BL db/db male mice [1] = assay: Oral glucose tolerance test (OGTT); format: in vivo; conditions: db/db mice 19-week old; for OGTT blood sugar level: glucose 2 g/kg oral
Procedure: The animals were allowed to water ad libitum.
For oral glucose tolerance test, the animals, starved for 16 hours from the night before of the end of the feeding (19-week old), were orally administered with glucose (2 g/kg), and the bloods were collected from orbital venous plexus at time 0 and after 60 and 120 minutes by using a capillary glass to measure blood sugar levels.

Body weight = format: in vivo; conditions: db/db mice, 0.3% in the feed, 19-week old
c57BL db/db male mice [2] = conditions: 19-week old
Procedure: (§1) 6-Week old c57BL db/db male mice, as being a Type-2 diabetes model animal having homozygote diabetes pathogenic gene (db), were divided in three groups each consisting of 10 animals. A group of healthy c57BL db/+m male mice (10 animals) having heterozygote db gene was used as a control group. The animals were housed in plastic cages for mice at five animals per cage. The animals were fed under feeding conditions at a temperature of 24±1° C. and a relative humidity of 55±5%, where light and darkness were controlled to change every 12 hours, and each cage and bedding materials were exchanged twice a week. The animals were allowed to water ad libitum.
(§2) Feed CMF for mouse (Oriental Yeast Co.) was used as a basic feed, and 0.1% or 0.3% of 5-campesten-3-one was mixed to the feed to prepare an experimental feed. The resulting feeds were kept at 4° C. before the start of feeding.
(§3) The animals were autopsied, and the brain, lungs, heart, liver, spleen, pancreas, kidneys, adrenals, and testis were macroscopically examined and weighed.

c57BL db/db male mice [3] = assay: Change in blood sugar level in Type-2 diabetes model mice fed 5-campesten-3-one in the feed; format: in vivo; conditions: for blood sugar level relative to control group (second group): 0.1% in the feed
c57BL db/db male mice [4] = conditions: mouse, in vivo
Procedure: as §1, §2, §3

c57BL db/db male mice [5] = assay: Urinary sugar by urinary test paper; format: in vivo; conditions: for urinary sugar, Positive ratio: + or higher positive
[6] = 0.3% in the feed, 7- to 17-week old
[7] = 0.1% in the feed, week 7 (period 0 week)
[8] = 0.1% in the feed, week 9 (period 2 weeks)
[9] = 0.1% in the feed, week 11 (period 4 weeks)
[10] = 0.1% in the feed, week 13 (period 6 weeks)
[11] = 0.1% in the feed, week 15 (period 8 weeks)
[12] = 0.1% in the feed, week 17 (period 10 weeks)
[13] = 0.3% in the feed, week 7 (period 0 week)
[14] = 0.3% in the feed, week 9 (period 2 weeks)
[15] = 0.3% in the feed, week 11 (period 4 weeks)
[16] = 0.3% in the feed, week 13 (period 6 weeks)
[17] = 0.3% in the feed, week 15 (period 8 weeks)
[18] = 0.3% in the feed, week 17 (period 10 weeks)

## CC(C)[C@H](C)CC[C@@H](C)[C@H]1CC[C@H]2[C@@H]3CC=C4CC(=O)CC[C@]4(C)[C@H]3CC[C@]12C [5-campesten-3-one]
c57BL db/db male mice [1]; 0.1% in the feed, every measuring point
  OGTT blood sugar levels compared to second group: significantly lower than the levels of the second group at every measuring points
c57BL db/db male mice [1]; 0.1% in the feed, 60 minutes
  OGTT blood sugar level: 703 mg/dL
c57BL db/db male mice [1]; 0.1% in the feed, 120 minutes
  OGTT blood sugar level: 558 mg/dL
c57BL db/db male mice [1]; 0.1% in the feed, time 0
  OGTT blood sugar level: 497 mg/dL
c57BL db/db male mice [1]; 0.3% in the feed, 60 minutes
  OGTT blood sugar level: almost the same 60-munites value as that of the third group
c57BL db/db male mice [1]; 0.3% in the feed, 120 minutes
  OGTT blood sugar level: 440 mg/dL
c57BL db/db male mice [1]; 0.3% in the feed, time 0
  OGTT blood sugar level: 282 mg/dL
Body weight
  body weight compared to control group (second group): significantly higher
c57BL db/db male mice [2]; 0.1% and 0.3% in the feed, some mice with fat liver, as in the control db/db group
  autopsy of brain, heart, lungs, livers, pancreas, spleen, kidneys, adrenals: no particular abnormality was observed
c57BL db/db male mice [2]; 0.3% in the feed, untreated diabetic mice 50 to 60%
  weight of the testis (absolute weight) as % of that of the healthy mice (first group): 85%
c57BL db/db male mice [3]; 9-week old
  blood sugar level relative to control group (second group): increased
c57BL db/db male mice [3]; 11-week old
  blood sugar level relative to control group (second group): decreased
c57BL db/db male mice [3]; 17-week old
  blood sugar level relative to control group (second group): lower level
c57BL db/db male mice [3]; [6]
  change with time in blood sugar level: almost constant level without a significant increase
c57BL db/db male mice [3]; 0.3% in the feed, 7-week old
  blood sugar level, initial value: 270 mg/dL
c57BL db/db male mice [3]; 0.3% in the feed, after 9-week old
  blood sugar level compared to control group (second group): significantly lower values at every measuring times after 9-week old
c57BL db/db male mice [4]
  general conditions during the experimental period: no abnormal findings such as diarrhea was observed
c57BL db/db male mice [5]; 0.1% in the feed
  onset of positive urinary sugar: a delay in giving a positive result was observed
c57BL db/db male mice [5]; [7]
  urinary sugar, number of mice graded +: 1
  urinary sugar, number of mice graded ++: 0
  urinary sugar, number of mice graded +++: 4
  urinary sugar, number of mice graded ±: 1
  urinary sugar, number of mice graded −: 2
  urinary sugar, Positive ratio: 63%
c57BL db/db male mice [5]; [8]
  urinary sugar, number of mice graded +: 0
  urinary sugar, number of mice graded ++: 2
  urinary sugar, number of mice graded +++: 2
  urinary sugar, number of mice graded ±: 2
  urinary sugar, number of mice graded −: 1
  urinary sugar, Positive ratio: 57%
c57BL db/db male mice [5]; [9]
  urinary sugar, number of mice graded +: 1
  urinary sugar, number of mice graded ++: 0
  urinary sugar, number of mice graded +++: 7
  urinary sugar, number of mice graded ±: 0
  urinary sugar, number of mice graded −: 1
  urinary sugar, Positive ratio: 89%
c57BL db/db male mice [5]; [10]
  urinary sugar, number of mice graded +: 0
  urinary sugar, number of mice graded ++: 0
  urinary sugar, number of mice graded +++: 9
  urinary sugar, number of mice graded ±: 0
  urinary sugar, number of mice graded −: 0
  urinary sugar, Positive ratio: 100%
c57BL db/db male mice [5]; [11]
  urinary sugar, number of mice graded +: 0
  urinary sugar, number of mice graded ++: 1
  urinary sugar, number of mice graded +++: 8
  urinary sugar, number of mice graded ±: 0
  urinary sugar, number of mice graded −: 0
  urinary sugar, Positive ratio: 100%
c57BL db/db male mice [5]; [12]
  urinary sugar, number of mice graded +: 1
  urinary sugar, number of mice graded ++: 0
  urinary sugar, number of mice graded +++: 8
  urinary sugar, number of mice graded ±: 0
  urinary sugar, number of mice graded −: 0
  urinary sugar, Positive ratio: 100%
c57BL db/db male mice [5]; [6]
  positive ratio of urinary sugar, range over the test period: 14 to 70%
c57BL db/db male mice [5]; 0.3% in the feed, almost a half of the mice + (150 mg/dl) or ++ (500 mg/dl)
  positive degrees of urinary sugar compared to control group (second group): lower than the results of the control group
c57BL db/db male mice [5]; [13]
  urinary sugar, number of mice graded +: 0
  urinary sugar, number of mice graded ++: 0
  urinary sugar, number of mice graded +++: 1
  urinary sugar, number of mice graded ±: 0
  urinary sugar, number of mice graded −: 6
  urinary sugar, Positive ratio: 14%
c57BL db/db male mice [5]; [14]
  urinary sugar, number of mice graded +: 0
  urinary sugar, number of mice graded ++: 1
  urinary sugar, number of mice graded +++: 0
  urinary sugar, number of mice graded ±: 0
  urinary sugar, number of mice graded −: 4
  urinary sugar, Positive ratio: 20%
c57BL db/db male mice [5]; [15]
  urinary sugar, number of mice graded +: 0
  urinary sugar, number of mice graded ++: 2
  urinary sugar, number of mice graded +++: 3
  urinary sugar, number of mice graded ±: 1
  urinary sugar, number of mice graded −: 2
  urinary sugar, Positive ratio: 63%
c57BL db/db male mice [5]; [16]
  urinary sugar, number of mice graded +: 1
  urinary sugar, number of mice graded ++: 2
  urinary sugar, number of mice graded +++: 2
  urinary sugar, number of mice graded ±: 0
  urinary sugar, number of mice graded −: 5
  urinary sugar, Positive ratio: 50%
c57BL db/db male mice [5]; [17]
  urinary sugar, number of mice graded +: 1
  urinary sugar, number of mice graded ++: 1
  urinary sugar, number of mice graded +++: 2
  urinary sugar, number of mice graded ±: 1
  urinary sugar, number of mice graded −: 4
  urinary sugar, Positive ratio: 44%
c57BL db/db male mice [5]; [18]
  urinary sugar, number of mice graded +: 3
  urinary sugar, number of mice graded ++: 1
  urinary sugar, number of mice graded +++: 3
  urinary sugar, number of mice graded ±: 2
  urinary sugar, number of mice graded −: 1
  urinary sugar, Positive ratio: 70%
